Experiments:
[1] = test system: virus; assay: Virus replication; format: cell-based
[2] = test system: MEFs; assay: RT-PCR of IFNβ induction in mouse embryonic fibroblasts (MEFs); format: cell-based; settings: 1 uM; SeV, dsRNA, dsDNA
From the text: As discussed above, the mouse ATP1a1 protein is not sensitive to cardiac glycoside binding.

[3] = test system: patients; settings: huachansu, Meng et al.; cited from earlier work
[4] = test system: IFNβ promoter; assay: IFNβ reporter induced by over-expression of RIG-I, MAVS or TBK1 in 293T cells; format: cell-based, human
[5] = test system: IFNβ and CXCL10 gene expression; assay: RT-PCR of dsRNA (poly I:C) and dsDNA (poly dA:dT) induced gene expression in 293T cells; format: cell-based, human; settings: 1 uM, 6 hrs
[6] = test system: LPS signaling; assay: LPS induced gene expression in THP-1 cells; format: cell-based, human; settings: 1 μM
From the text: (§1) Total RNA or protein were harvested for the expression analysis of specific genes by RT-PCR or Western blot.
(§2) Specifically, the inventors tested interferon (IFN), tumor necrosis factor (TNF), epidermal growth factor (EGF) signaling, and treatment with lipopolysacchoride (LPS).

[7] = test system: endogenous TNF target genes; assay: RT-PCR of TNF induced gene expression in 293T cells; format: cell-based, human; settings: 6 hrs
[8] = test system: PRDII element of the IFNβ promoter; format: cell-based, human; settings: 1 uM, compared with no drug treatment
Protocol: 293T cells were transfected with the IFNβ promoter driving a firefly luciferase reporter together a reference renilla luciferase reporter plasmid. […] Firefly luciferase activities were measured after another 24 hrs and normalized to that of renilla activities. […] Experiments were conducted same as in A, but PRDIV, PRDIII/I and PRDII driving luciferase reporter plasmids were used instead.

[9] = test system: 293T cells; assay: Western blot analysis of apoptosis and autophagy; format: cell-based, human; settings: 8 hours, bufalin 1 nM to 10 μM, staurosporine 4 μM
Protocol: The cells were also exposed to 0.1% Triton X-100 for 1 hr before the viability assay as a control (FIG. 16E). Data represent mean values±s.d. (n=3). […] Cells were harvested and washed, then stained with Allophycocyanin (APC) conjugated Annexin V and 7-AAD for 15 minutes and subjected to flow cytometry analysis. The number in each graph is the percentile of Annexin V or 7-AAD positive populations. […] Total protein lysates were prepared and separated on SDS-PAGE for Western blot analysis of PARP1, cleaved PARP1, cleaved Caspase3, LC3B, ATP1a1, and beta-actin expression.
Apoptosis and autophagy were also analyzed by Western blots. […] Total protein lysates were prepared and separated on SDS-PAGE for Western blot analysis of PARP1, cleaved PARP1, cleaved Caspase3, LC3B, ATP1a1, and beta-actin expression.

[10] = test system: IFN signaling; assay: IFN induced gene expression in Hela cells; format: cell-based, human; settings: 1 μM
From the text: as §1, §2

[11] = test system: Hela and MG63 cells; assay: RT-PCR of IFNβ gene induction in Hela and MG63 cells; format: cell-based, human
From the text: 6 hrs later, cells were harvested and RNA extracted for RT-PCR analysis for the expression of various genes.

[12] = test system: PRDII element (NFkB binding site); format: cell-based, human; settings: bufalin and TNF 24 hrs

Compound: C[C@]12CC[C@H](O)C[C@H]1CC[C@@H]1[C@H]2CC[C@]2(C)[C@@H](c3ccc(=O)oc3)CC[C@]12O [Bufalin]
- virus replication [1]: inhibited
- induction of IFNβ gene by various inducers in MEFs [2]: little effects
- well tolerated concentration of bufalin in patients [3]: up to 9 nM
- IFNβ reporter induction by MAVS over-expression [4]: no effect
- IFNβ reporter induction by TBK1 over-expression [4]: little effect
- virus induction of the IFNβ reporter when RIG-I was over-expressed [4]: only slightly reduced
- IFNβ and CXCL10 gene expression in response to poly I:C and poly dA:dT [5]: strongly inhibited
- LPS induction of Il-8, TNF and IKBa [6]: minimal
- LPS induced expression of Cxcl10 gene ([6]; LPS 20 ng/ml, 2 hours): impaired
- expression of endogenous TNF target genes [7]: significantly inhibited
- repression of viral induction of luciferase expression, PRDII reporter [8]: > 86%
- cleavage products of PARP1 and Caspase3 (indication of apoptosis) [9]: not observed
- induction of LC3B-II (marker of autophagy) ([9]; BFA 100 nM): not observed
- IFN induction of Stat1 and ISG15 genes [10]: no effect
- IFN induced expression of Cxcl10 and RIG-I genes ([10]; IFN 1000 U/ml, 6 hours): weakly inhibited
- poly I:C and poly dA:dT induced IFNβ expression in Hela and Mg63 cells [11]: strongly inhibited
- virus induced IFNβ expression in Hela and MG63 cells [11]: less than observed with 293T and Namalwa cells
- decrease of TNF induced luciferase gene expression [12]: 40%

— patent US20140088056A1, “CARDIAC GLYCOSIDES ARE POTENT INHIBITORS OF INTERFERON-BETA GENE EXPRESSION” (priority 2010, published 2014)
